Experimental data published in BigSolDB 2.1.

Conditions: in water

N#CN=C(N)N
Conditions	solubility (mole fraction)
278.15 K	0.00303
283.15 K	0.00387
288.15 K	0.00526
293.15 K	0.00707
298.15 K	0.00891
303.15 K	0.0114
308.15 K	0.0141
313.15 K	0.0172
318.15 K	0.021
323.15 K	0.0265
